Measured values: PubChem BioAssay (NCI)
Where “and” joins values, the source holds several entries; their conditions need not be identical. Identical values can stand only once.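 Following 48 hours of exposure in 96-well plates, responses at five concentrations were used to interpolate endpoints linearly. Here, GI50 denotes the concentration required for 50% inhibition of growth. TGI is the concentration that stops growth completely.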

Columns and labels:
Assay in all cases: NCI anticancer screen, dose series, 48 h
HOP-62 NSCLC = tested on: HOP-62 NSCLC
NCI-H460 lung = tested on: NCI-H460 lung
CAKI-1 renal = tested on: CAKI-1 renal
T-47D breast = tested on: T-47D breast
SW-620 colon = tested on: SW-620 colon
SN12C renal = tested on: SN12C renal
KM12 colon = tested on: KM12 colon
PC-3 prostate = tested on: PC-3 prostate
UO-31 renal = tested on: UO-31 renal
HCT-15 colon = tested on: HCT-15 colon

SMILES | GI50 (HOP-62 NSCLC) | TGI (HOP-62 NSCLC) | GI50 (NCI-H460 lung) | TGI (NCI-H460 lung) [µM] | GI50 (CAKI-1 renal) | TGI (CAKI-1 renal) [µM] | GI50 (T-47D breast) | TGI (T-47D breast) [µM] | GI50 (SW-620 colon) | TGI (SW-620 colon) [µM] | GI50 (SN12C renal) [µM] | TGI (SN12C renal) | GI50 (KM12 colon) | TGI (KM12 colon) [µM] | GI50 (PC-3 prostate) | TGI (PC-3 prostate) | GI50 (UO-31 renal) | TGI (UO-31 renal) | GI50 (HCT-15 colon) | TGI (HCT-15 colon) [µM]
O=C(CCN1CCCN(c2cnc3ccccc3n2)CC1)c1csc2ccccc12 | 28.1 µM | 77.3 µM | 32.8 µM | > 100 | 17.8 µM | 31.7 | 11 µM | 25.3 | 17.4 µM | 33.3 | 21.9 | 44.7 µM | 16 µM | 29.4 | 21.3 µM | 50.6 µM | 14.8 µM | 28 µM | 18.9 µM | 34.8
NC1(C(=O)N[C@@H](CCO)c2ccc(Cl)cc2)CCN(c2ncnc3[nH]ccc23)CC1 | 3.69 µM and 4.89 µM | > 100 µM | 0.679 µM and 1.74 µM | > 100 | > 2.14 µM and 14.1 µM | > 100 | 0.167 µM and 0.439 µM | > 76.8 | > 3.5 µM and 24.8 µM | > 100 | 13.9 | > 100 µM | 0.927 µM and 2.78 µM | > 77.2 | 0.86 µM and 0.841 µM | > 100 µM | 1.17 µM and 5.53 µM | > 5.24 µM and 72.1 µM | > 3.33 µM and 53.9 µM | > 100
CN(C)C1CN(C(=O)c2cc(-c3ccc4ncnc(N5CCc6cc(F)c(Cl)cc65)c4c3)cnc2N)C1 | 0.586 µM | > 28.1 µM | 0.574 µM | > 100 | 0.509 µM | > 100 | 0.299 µM | 5.52 | 1.48 µM | > 100 | 0.385 | > 100 µM | 1.13 µM | > 100 | 0.398 µM | > 23 µM | 0.237 µM | > 100 µM | 0.495 µM | > 100
Nc1n[nH]c2ccc([C@@H]3Nc4ccc5cn[nH]c5c4[C@H]4C5CCC(C5)[C@@H]34)cc12 (some centres not stated) | 0.485 µM | > 70 µM | 0.382 µM | > 100 | 0.347 µM | > 48.8 | 0.402 µM | > 100 | 0.401 µM | > 100 | 0.747 | > 100 µM | 0.47 µM | 28 | 0.476 µM | > 100 µM | 1 µM | > 100 µM | 0.414 µM | > 100
c1ccc(CC(Nc2cccnc2)c2ccccc2)cc1 (configuration not stated) | – | 60.1 µM | – | 52.9 | – | > 100 | – | > 100 | – | > 100 | – | 50.8 µM | – | 70.2 | – | 76.9 µM | – | 45 µM | – | > 100
COc1cc(C(=O)NN=C2c3ccccc3-c3ccccc32)cc(OC)c1OC | 5.15 µM | 35.9 µM | 3.17 µM | 26.6 | 2.14 µM | 7.92 | 3.9 µM | 65.5 | 2.53 µM | > 100 | 4.48 | 41.2 µM | 2.15 µM | > 100 | 2.72 µM | 25 µM | 4.02 µM | 75.3 µM | 2.63 µM | > 100
CCCCCCCCCC[C@H](O)[C@H]1CC[C@@H]([C@@H](O)CC[C@H](O)[C@@H]2CCC(CCCCCCC[C@@H](O)CC3=C[C@H](C)OC3=O)O2)O1 (some centres not stated) | 4.55 µM | 3.28 µM and 19.4 µM | 1.15 µM | 17.2 | 5.26 µM | 23.8 | 1.87 µM | 17.6 | 4.8 µM | – | 8.18 | 8.23 µM and 30.6 µM | 4.25 µM | – | 4.66 µM | 3.44 µM and 17.2 µM | 2.59 µM | 2.13 µM and 10.9 µM | 7.02 µM | 30.8
CO/C(=C1/NC(=O)C(Cc2ccc(O)c(Br)c2)N(C)C(=O)C(C)NC(=O)CCC/C=C(\C)CCC(C)OC1=O)c1ccccc1 (configuration not stated) | 0.0369 µM | 1.18 µM | – | 3.49 | 0.0196 µM | 0.0509 | 0.0354 µM | 1.34 | 0.0146 µM | 33.3 | 0.0695 | > 100 µM | 0.0784 µM | 19.2 | 0.036 µM | 0.595 µM | 0.0192 µM | 0.0458 µM | 0.0632 µM | 13.4
COc1cc(N2CCC(N)CC2)ccc1Nc1ncc(Cl)c(-c2c[nH]c3ccccc23)n1 | 0.389 µM | 1.99 µM | 0.235 µM | 1.66 | 0.335 µM | 2.1 | 1.78 µM | 4.72 | 0.183 µM | 1.44 | 0.869 | 3.76 µM | 0.302 µM | 1.14 | 1 µM | 3.63 µM | 0.339 µM | 2.12 µM | 0.323 µM | 1.96
